Laboratory results from US20200216416A1, “QUINOLINE COMPOUNDS AS INHIBITORS OF TAM AND MET KINASES” (Array BioPharma Inc., priority 2019, published 2020).

Key:
[1] = target: T1, His-tagged recombinant human AXL cytoplasmic domain (Homo sapiens, UniProt P30530); assay: AXL Enzyme Assay (LanthaScreen Eu Kinase Binding); conditions: averaged IC50; 60-minute incubation at 22° C.; TR-FRET
T1 construct: His-tagged recombinant human AXL cytoplasmic domain
T1 sequence (P30530 473-894 limits assumed): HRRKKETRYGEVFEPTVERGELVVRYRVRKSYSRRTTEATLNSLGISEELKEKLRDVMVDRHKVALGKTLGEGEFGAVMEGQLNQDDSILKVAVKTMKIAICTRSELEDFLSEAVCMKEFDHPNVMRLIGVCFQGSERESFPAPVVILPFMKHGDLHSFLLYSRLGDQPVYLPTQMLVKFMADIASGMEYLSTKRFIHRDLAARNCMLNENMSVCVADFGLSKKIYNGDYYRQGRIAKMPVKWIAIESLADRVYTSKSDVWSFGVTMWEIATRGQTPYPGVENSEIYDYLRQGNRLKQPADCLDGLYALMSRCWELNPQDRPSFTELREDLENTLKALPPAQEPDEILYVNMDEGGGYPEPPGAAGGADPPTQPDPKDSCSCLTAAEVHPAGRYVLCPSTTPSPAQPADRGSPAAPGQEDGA
Outline: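 TR-FRET binding-displacement format: 20 nM Alexa Fluor Tracer 236, 2 nM biotin-anti-His and 2 nM Eu-streptavidin in 25 mM HEPES pH 7.4, 10 mM MgCl2, 0.01% Triton X-100, 2% DMSO. After 60 min at 22 °C, ratiometric percent of control was fitted to a 4-parameter logistic curve, IC50 taken at 50 POC.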

[2] = target: T2, human MET kinase del Ex14 (Homo sapiens, UniProt P08581, DEL963-1009); assay: c-Met Enzyme Assay, del Ex14 mutant; format: binding; conditions: averaged IC50; del Ex14 5 nM; 60-minute incubation at 22° C.; read-out: Del14 IC50
T2 construct: GST-tagged recombinant human MET kinase domain; purchased Signal Chem
Experimental: (§1) The affinity of compound binding to wild type and mutant human MET kinases was measured using Invitrogen's LanthaScreen™ Eu Kinase Binding technology. Briefly, GST-tagged recombinant human MET kinase domain from Signal Chem (see Table 8 below for concentration in assay) was incubated with 50 nM Alexa-Fluor® Tracer 236 (Invitrogen Cat No. PR9078A) and 2 nM Europium-anti-GST (Invitrogen Cat. No. A15116) along with test compound in a buffer consisting of 25 mM HEPES, pH 7.4, 10 mM MgCl2, 0.01% Triton X-100, 1mM DTT, and 2% DMSO. Compounds were typically prepared in a three-fold serial dilution in DMSO and added to the assay to give the appropriate final concentration. After a 60-minute incubation at 22° C., the reaction was measured using a PerkinElmer EnVision multimode plate reader via TR-FRET dual wavelength detection, and the percent of control (POC) calculated using a ratiometric emission factor. […] The POC values were fit to a 4 parameter logistic curve and the IC50 value is point where the curve crosses 50 POC.

[3] = target: T3, human MET kinase D1228N (Homo sapiens, UniProt P08581, D1228N); assay: c-Met Enzyme Assay, D1228N mutant; format: binding; conditions: averaged IC50; D1228N 2 nM; 60-minute incubation at 22° C.; read-out: D1228 N IC50
T3 construct: GST-tagged recombinant human MET kinase domain; purchased Signal Chem
Experimental: as §1

[4] = target: T4, human MET kinase Y1230S (Homo sapiens, UniProt P08581, Y1230S); assay: c-Met Enzyme Assay, Y1230S mutant; format: binding; conditions: averaged IC50; Y1230S 8 nM; 60-minute incubation at 22° C.; read-out: Y1230 S IC50
T4 construct: GST-tagged recombinant human MET kinase domain; purchased Signal Chem
Experimental: as §1

T3 sequence (P08581 1078-1345 D1228N): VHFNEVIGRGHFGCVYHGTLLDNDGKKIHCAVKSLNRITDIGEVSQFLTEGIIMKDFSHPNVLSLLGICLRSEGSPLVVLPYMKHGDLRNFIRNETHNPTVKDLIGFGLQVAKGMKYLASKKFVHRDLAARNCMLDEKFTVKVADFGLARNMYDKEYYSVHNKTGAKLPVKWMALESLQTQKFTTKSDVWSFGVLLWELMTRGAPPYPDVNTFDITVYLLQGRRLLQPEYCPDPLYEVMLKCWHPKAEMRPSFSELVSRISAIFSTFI
T4 sequence (P08581 1078-1345 Y1230S): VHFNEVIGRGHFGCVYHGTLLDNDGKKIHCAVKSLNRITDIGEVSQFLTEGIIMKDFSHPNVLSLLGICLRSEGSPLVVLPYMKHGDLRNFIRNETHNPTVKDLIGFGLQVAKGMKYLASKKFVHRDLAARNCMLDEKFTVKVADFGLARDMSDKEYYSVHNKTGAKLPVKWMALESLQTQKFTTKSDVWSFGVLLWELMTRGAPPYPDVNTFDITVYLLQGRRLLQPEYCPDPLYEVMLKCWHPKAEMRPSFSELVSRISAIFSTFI
T2 sequence (P08581 with tags, fused parts or gaps DEL963-1009 limits assumed): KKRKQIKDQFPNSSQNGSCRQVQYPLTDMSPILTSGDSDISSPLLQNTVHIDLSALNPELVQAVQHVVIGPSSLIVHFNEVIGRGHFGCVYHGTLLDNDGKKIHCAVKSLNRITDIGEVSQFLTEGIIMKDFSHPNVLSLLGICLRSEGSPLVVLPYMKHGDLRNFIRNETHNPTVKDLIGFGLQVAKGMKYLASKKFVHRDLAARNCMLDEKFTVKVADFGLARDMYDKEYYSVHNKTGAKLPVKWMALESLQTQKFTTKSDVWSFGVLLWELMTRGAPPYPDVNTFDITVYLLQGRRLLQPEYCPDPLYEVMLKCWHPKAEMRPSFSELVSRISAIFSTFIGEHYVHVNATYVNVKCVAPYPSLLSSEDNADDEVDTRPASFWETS

Row | IC50 [1] [nM] | IC50 [2] [nM] | IC50 [3] [nM] | IC50 [4] [nM] | Compound
1 | 3 | 25.6 | 179 | 55.3 | CCn1cc(C(=O)Nc2ccc(Oc3ccnc4ccc(OC)cc34)cn2)c(=O)c(-c2ccc(F)cc2)c1 [Example 39, 1-ethyl-5-(4-fluorophenyl)-N-(5-((6-methoxyquinolin-4-yl)oxy)pyridin-2-yl)-4-oxo-1,4-dihydropyridine-3-carboxamide]
2 | 5 | 108 | 646 | 226 | COc1ccc2nccc(Oc3ccc(NC(=O)c4cn(C)cc(-c5ccc(F)cc5)c4=O)nc3)c2c1 [Example 41, 5-(4-fluorophenyl)-N-(5-((6-methoxyquinolin-4yl)oxy)pyridin-2-yl)-1-methyl-4-oxo-1,4-dihydropyridine-3-carboxamide]
3 | 2 | 1.9 | 7 | 2.7 | COc1cc2nccc(Oc3ccc(NC(=O)c4cn(CCN(C)C)cc(-c5ccc(Cl)cc5)c4=O)nc3)c2cc1OC [Example 42]
4 | 2 | 2.5 | 2.7 | 1.1 | COc1cc2nccc(Oc3ccc(NC(=O)c4cn(CCN(C)C)cc(-c5ccc(F)c(F)c5)c4=O)nc3)c2cc1OC [Example 43, 5-(3,4-difluorophenyl)-N-(5-((6,7-dimethoxyquinolin-4-yl)oxy)pyridin-2-yl)-1-]
5 | 2 | 2.1 | 3.2 | 2.1 | COc1cc2nccc(Oc3ccc(NC(=O)c4cn(CCN(C)C)cc(-c5ccc(F)cc5F)c4=O)nc3)c2cc1OC [Example 44, 5-(2,4-difluorophenyl)-N-(5-((6,7-dimethoxyquinolin-4-yl)oxy)pyridin-2-yl)-1-(2-(dimethylamino)ethyl)-4-oxo-1,4-dihydropyridine-3-carboxamide]
6 | 5 | 5.7 | 13.4 | 6.2 | COc1cc2nccc(Oc3ccc(NC(=O)c4cn(C)c(C(C)C)c(-c5ccc(F)cc5)c4=O)nc3)c2cc1OC [Example 45, N-(5-((6,7-dimethoxyquinolin-4-yl)oxy)pyridin-2-yl)-5-(4-fluorophenyl)-6-isopropyl-1-methyl-4-oxo-1,4-dihydropyridine-3-carboxamide]
7 | 1 | 2.8 | 5.4 | 1.7 | COc1cc2nccc(Oc3ccc(NC(=O)c4cn(CCN(C)C)cc(-c5ccc(F)cc5)c4=O)nc3)c2cc1OC [Example 46]
8 | 1 | 14.3 | 29.7 | 18.9 | COc1ccc2nccc(Oc3ccc(NC(=O)c4cn(CCN(C)C)cc(-c5ccc(F)cc5)c4=O)nc3)c2c1 [Example 47]
9 | 2 | 4.9 | 14.6 | 8.8 | COc1cc2c(Oc3ccc(NC(=O)c4cn(C(C)C)c(C)c(-c5ccc(F)cc5)c4=O)nc3)ccnc2cc1F [Example 48, N-(5-((7-fluoro-6-methoxyquinolin-4yl)oxy)pyridin-2-yl)-5-(4-fluorophenyl)-1-isopropyl-6-methyl-4-oxo-1,4-dihydropyridine-3-carboxamide]
10 | 1 | 22 | 130 | 67.1 | COc1cc2c(Oc3ccc(NC(=O)c4cn(C(C)C)cc(-c5ccc(F)cc5)c4=O)nc3)ccnc2cc1F [Example 49, N-(5-((7-fluoro-6-methoxyquinolin-4yl)oxy)pyridin-2-yl)-5-(4-fluorophenyl)-1-isopropyl-4-oxo-1,4-dihydropyridine-3-carboxamide]
11 | 16 | 90.4 | 444 | 166 | CC(C)n1cc(C(=O)Nc2ccc(Oc3ccnc4cc(OC(F)(F)F)ccc34)cn2)c(=O)c(-c2ccc(F)cc2)c1 [Example 50, 5-(4-fluorophenyl)-1-isopropyl-4-oxo-N-(5-((7-(trifluoromethoxy)quinolin-4-yl)oxy)pyridin-2-yl)-1,4-dihydropyridine-3-carboxamide]
12 | 5 | 29.4 | 178 | 44 | CCOc1ccc2nccc(Oc3ccc(NC(=O)c4cn(C(C)C)cc(-c5ccc(F)cc5)c4=O)nc3)c2c1 [Example 51, N-(5-((6-ethoxyquinolin-4-yl)oxy)pyridin-2-yl)-5-(4-fluorophenyl)-1-isopropyl-4-oxo-1,4-dihydropyridine-3-carboxamide]
13 | 4 | 10.3 | 26.3 | 14.3 | CCOc1ccc2c(Oc3ccc(NC(=O)c4cn(C(C)C)cc(-c5ccc(F)cc5)c4=O)nc3)ccnc2c1 [Example 52, N-(5-((7-ethoxyquinolin-4-yl)oxy)pyridin-2-yl)-5-(4-fluorophenyl)-1-isopropyl-4-oxo-1,4-dihydropyridine-3-carboxamide]
14 | 5 | 3.8 | 8.3 | 3.2 | COc1cc2nccc(Oc3cnc(NC(=O)c4cn(C(C)C)cc(-c5ccc(F)cc5)c4=O)nc3)c2cc1OC [Example 54, N-(5-((6,7-dimethoxyquinolin-4-yl)oxy)pyrimidin-2-yl)-5-(4-fluorophenyl)-1-isopropyl-4-oxo-1,4-dihydropyridine-3-carboxamide]
15 | 2 | 3.1 | 3.4 | 2.6 | COc1cc2nccc(Oc3cnc(NC(=O)c4cn(C(C)C)c(C)c(-c5ccc(F)cc5)c4=O)nc3)c2cc1OC [Example 55, N-(5-((6,7-dimethoxyquinolin-4-yl)oxy)pyrimidin-2-yl)-5-(4-fluorophenyl)-1-isopropyl-6-methyl-4-oxo-1,4-dihydropyridine-3-carboxamide]
16 | 3 | 4.5 | 4.3 | 3 | COc1cc2c(Oc3ccc(NC(=O)c4cn(C(C)C)cc(-c5ccc(F)cc5)c4=O)nc3)ccnc2cc1OCCCN1CCOCC1 [Example 56, 5-(4-fluorophenyl)-1-isopropyl-N-(5-((6-methoxy-7-(3-morpholinopropoxy)quinolin-4-yl)oxy)pyridin-2-yl)-4-oxo-1,4-dihydropyridine-3-carboxamide]
17 | 12 | 305 | 1060 | 514 | COc1cc2ncc(C#N)c(Oc3ccc(NC(=O)c4cn(C(C)C)cc(-c5ccc(F)cc5)c4=O)nc3)c2cc1OC [Example 57, N-(5-((3-cyano-6,7-dimethoxyquinolin-4-yl)oxy)pyridin-2-yl)-5-(4-fluorophenyl)-1-isopropyl-4-oxo-1,4-dihydropyridine-3-carboxamide]
18 | 1 | 3.1 | 7.7 | 2.7 | COc1cc2nccc(Oc3ccc(NC(=O)c4cn(C(C)C)cc(-c5ccc(F)cc5)c4=O)cn3)c2cc1OC [Example 58, N-(6-((6,7-dimethoxyquinolin-4-yl)oxy)pyridin-3-yl)-5-(4-fluorophenyl)-1-isopropyl-4-oxo-1,4-dihydropyridine-3-carboxamide]
